Reference: patent US20230279016A1, “Tetrahydropyrazolopyrimidines and Related Analogs for Inhibiting YAP/TAZ-TEAD” (THE KATHOLIEKE UNIVERSITEIT LEUVEN, priority 2021, published 2023)
Blank lines part the entries; values can stand above or below the molecule they belong to.

Test system: YAP/TAZ-TEAD transcription
Assay: Reporter gene assay for measuring the inhibition of YAP/TAZ-TEAD transcription (TEAD-responsive element luciferase reporter in Hek293T cells)
Assay type: cell-based
Conditions: Hek293T cells transiently transfected with TEAD-responsive element luciferase reporter, 24 hours incubation
Procedure: Hek293T cells are cultured in DMEM supplemented with 10% fetal bovine serum, Sodium pyruvate, Sodium bicarbonate, L-glutamine. The cells are harvested and transiently transfected with TEAD-responsive element luciferase reporter. Transfected cells are plated in 384-wells plate containing pre-diluted compounds. After 24 hours incubation at 37° C./5%CO2, assay plates were cooled down to RT and levelled to an equal volume per well, prior to the addition of 25 uL luciferase substrate SteadyLite (Perkin Elmer)/well. The plate was shaken for 10 min at 600 rpm, centrifuged for 1min at 500 rpm and measured with an Envision reader (PerkinElmer). The amount of relative light units produced by the TEAD reporter is used to calculated percent of inhibition.
The percent of reporter inhibition was calculated in the presence of a positive control inhibitor (100% inhibition) versus a condition with the presence of the vehicle basal activity of the reporter (0% inhibition). The ability of a test compound to inhibit this activity was determined as:
Percentage inhibition=[1-((RLU determined in the presence of vehicle—RLU determined for sample with test compound present) divided by (RLU determined in the presence of vehicle — RLU determined for sample with positive control inhibitor))] * 100
The activities of the example compounds tested are depicted in the table below. The activity ranges A, B and C refer to EC50 values in the reporter gene assay as described as follows: “A”: EC50 <1 μM; “B” : 1 μM≤EC50≤20 μM and “C” : EC50>20 μM, NT=not tested.

Structure (SMILES): C=CC(=O)NCC1CN(C2CCCCC2)c2ccnn2C1 (stereo not drawn) [Cpd. No. 037, N-((4-cyclohexyl-4,5,6,7-tetrahydropyrazolo[1,5-a]pyrimidin-6-yl)methyl)acrylamide]
EC50 (Homo sapiens, HEK-293T, 24 h): < 1 µM

Structure (SMILES): C=CC(=O)NCC1CN(c2ccn(C)c(=O)c2)c2ccnn2C1 (single isomer, unassigned) [Cpd. No. 024-En2, (R)- or (S)-N-((4-(1-methyl-2-oxo-1,2-dihydropyridin-4-yl)-4,5,6,7-tetrahydropyrazolo[1,5-a]pyrimidin-6-yl)methyl)acrylamide]
EC50: > 20 µM

Structure (SMILES): C=CC(=O)NCC1CN(c2cnn(C(F)F)c2)c2ccnn2C1 (stereo not drawn) [Cpd. No. 025, N-((4-(1-(difluoromethyl)-1H-pyrazol-4-yl)-4,5,6,7-tetrahydropyrazolo[1,5-a]pyrimidin-6-yl)methyl)acrylamide]
EC50 (Homo sapiens, HEK-293T, 24 h): > 20 µM

Structure (SMILES): Cn1ncc2c1CC(CNS(C)(=O)=O)CN2c1ccc(C(F)(F)F)cc1 (stereo not drawn) [Cpd. No. 076, N-((1-methyl-4-(4-(trifluoromethyl)phenyl)-4,5,6,7-tetrahydro-1H-pyrazolo[4,3-b]pyridin-6-yl)methyl)methanesulfonamide]
EC50 (Homo sapiens, HEK-293T, 24 h): > 20 µM

Structure (SMILES): CS(=O)(=O)NC(=O)C1CN(c2ccc(C(F)(F)F)cc2)c2ccnn2C1 (stereo not drawn) [Cpd. No. 093, N-(methylsulfonyl)-4-(4-(trifluoromethyl)phenyl)-4,5,6,7-tetrahydropyrazolo[1,5-a]pyrimidine-6-carboxamide]
EC50 (Homo sapiens, HEK-293T, 24 h): > 20 µM

Structure (SMILES): CN1CCC2(CN(c3ccc(C(F)(F)F)cc3)c3ccnn3C2)C1=O (single isomer, unassigned) [Cpd. No. 090-En2, (R)- or (S)-1′-methyl-4-(4-(trifluoromethyl)phenyl)-4,5-dihydro-7H-spiro[pyrazolo[1,5-a]pyrimidine-6,3′-pyrrolidin]-2′-one]
EC50: > 20 µM

Structure (SMILES): CCC(=O)NCC1Cc2c(cnn2Cc2cccc(C(N)=O)c2)N(c2ccc(C(F)(F)F)cc2)C1 (stereo not drawn) [Cpd. No. 082, 3-((6-(propionamide-methyl)-4-(4-(trifluoromethyl)phenyl)-4,5,6,7-tetrahydro-1H-pyrazolo[4,3-b]pyridin-1-yl)methyl)benzamide]
EC50: < 1 µM

Structure (SMILES): CCC(=O)NCC1Cc2nn(Cc3cccc(C(N)=O)c3)cc2N(c2ccc(C(F)(F)F)cc2)C1 (stereo not drawn) [Cpd. No. 083, 3-((6-(propionamide-methyl)-4-(4-(trifluoromethyl)phenyl)-4,5,6,7-tetrahydro-2H-pyrazolo[4,3-b]pyridin-2-yl)methyl)benzamide]
EC50: > 20 µM

Structure (SMILES): C=CC(=O)NCC1CN(c2ccc(-c3ccccc3)cc2)c2ccnn2C1 (single isomer, unassigned) [Cpd. No. 017-En2, (R)- or (S)-N-((4-([1,1′-biphenyl]-4-yl)-4,5,6,7-tetrahydropyrazolo[1,5-a]pyrimidin-6-yl)methyl)acrylamide]
EC50: < 1 µM

Structure (SMILES): C=CC(=O)NCC1CN(CC#Cc2ccccc2)c2ccnn2C1 (stereo not drawn) [Cpd. No. 056, N-((4-(3-phenylprop-2-yn-1-yl)-4,5,6,7-tetrahydropyrazolo[1,5-a]pyrimidin-6-yl)-methyl)acrylamide]
EC50 (Homo sapiens, HEK-293T, 24 h): < 1 µM

Structure (SMILES): CS(=O)(=O)NC1CN(c2ccc(C(F)(F)F)cc2)c2ccnn2C1 (stereo not drawn) [Cpd. No. 067, N-(4-(4-(trifluoromethyl)phenyl)-4,5,6,7-tetrahydropyrazolo[1,5-a]pyrimidin-6-yl)methanesulfonamide]
EC50 (Homo sapiens, HEK-293T, 24 h): > 20 µM

Structure (SMILES): CS(=O)(=O)N1CCC2(CN(c3ccc(C(F)(F)F)cc3)c3ccnn3C2)C1=O (single isomer, unassigned) [Cpd. No. 089-En1, (R)- or (S)-1′-(methylsulfonyl)-4-(4-(trifluoromethyl)phenyl)-4,5-dihydro-7H-spiro[pyrazolo[1,5-a]pyrimidine-6,3′-pyrrolidin]-2′-one]
EC50 (Homo sapiens, HEK-293T, 24 h): > 20 µM

Structure (SMILES): CCC(=O)NCC1CN(Cc2ccc(C(F)(F)F)cc2)c2ccnn2C1 (stereo not drawn) [Cpd. No. 050, N-((4-(4-(trifluoro-methyl)benzyl)-4,5,6,7-tetrahydropyrazolo[1,5-a]pyrimidin-6-yl)-methyl)propionamide]
EC50 (Homo sapiens, HEK-293T, 24 h): > 20 µM

More lines, now with the values ahead:

EC50 (Homo sapiens, HEK-293T, 24 h): > 20 µM
Structure (SMILES): C[C@H](NC(=O)NCC1CN(c2ccc(C(F)(F)F)cc2)c2ccnn2C1)c1ccccn1 (stereo partly drawn) [Cpd. No. 091, 1-((S)-1-(pyridin-2-yl)ethyl)-3-((4-(4-(trifluoromethyl)phenyl)-4,5,6,7-tetrahydropyrazolo[1,5-a]pyrimidin-6-yl)methyl)urea]

EC50: < 1 µM
Structure (SMILES): C=CC(=O)NCC1CN(c2ccc(C(F)F)cc2)c2ccnn2C1 (single isomer, unassigned) [Cpd. No. 009-En2, (R)- or (S)-N-((4-(4-(difluoromethyl)phenyl)-4,5,6,7-tetrahydropyrazolo[1,5-a]pyrimidin-6-yl)methyl)acrylamide]

EC50 (Homo sapiens, HEK-293T, 24 h): < 1 µM
Structure (SMILES): C=CC(=O)NCC1CN(c2ccc(C(F)(F)F)cc2)c2cnc(C(F)(F)F)n2C1 (stereo not drawn) [Cpd. No. 094, N-((6-(trifluoromethyl)-1-(4-(trifluoromethyl)phenyl)-1,2,3,4-tetrahydroimidazo[1,5-a]pyrimidin-3-yl)methyl)acrylamide]

EC50 (Homo sapiens, HEK-293T, 24 h): < 1 µM
Structure (SMILES): C=CC(=O)NCC1CN(c2ccc(Br)cc2)c2ccnn2C1 (single isomer, unassigned) [Cpd. No. 021-En1, (R)- or (S)-N-((4-(4-bromophenyl)-4,5,6,7-tetrahydropyrazolo[1,5-a]pyrimidin-6-yl)methyl)acrylamide]

EC50 (Homo sapiens, HEK-293T, 24 h): 1 to 20 µM
Structure (SMILES): CN(C)C/C=C/C(=O)NCC1CN(c2ccc(C(F)(F)F)cc2)c2ccnn2C1 (stereo not drawn) [Cpd. No. 041, (E)-4-(dimethylamino)-N-((4-(4-(trifluoromethyl)phenyl)-4,5,6,7-tetrahydropyrazolo[1,5-a]pyrimidin-6-yl)methyl)but-2-enamide]

EC50: 1 to 20 µM
Structure (SMILES): C=CC(=O)NCC1CN(c2ccc(C(F)F)cc2)c2ccnn2C1 (single isomer, unassigned) [Cpd. No. 009-En1, (R)- or (S)-N-((4-(4-(difluoromethyl)phenyl)-4,5,6,7-tetrahydropyrazolo[1,5-a]pyrimidin-6-yl)methyl)acrylamide]

EC50: > 20 µM
Structure (SMILES): CCC(=O)NCC1CN(c2ccc(C(F)(F)F)cc2)c2ccnn2C1 (single isomer, unassigned) [Cpd. No. 028-En1, (R)- or (S)-N-((4-(4-(trifluoromethyl)phenyl)-4,5,6,7-tetrahydropyrazolo[1,5-a]pyrimidin-6-yl)methyl)propionamide]

EC50: < 1 µM
Structure (SMILES): CCC(=O)NCC1CN(c2ccc(C(F)(F)F)cc2)c2ccnn2C1 (stereo not drawn) [Cpd. No. 028, N-((4-(4-(trifluoromethyl)phenyl)-4,5,6,7-tetrahydropyrazolo[1,5-a]pyrimidin-6-yl)methyl)propionamide]

EC50 (Homo sapiens, HEK-293T, 24 h): > 20 µM
Structure (SMILES): N#CCC(=O)NCC1CN(c2ccc(C(F)(F)F)cc2)c2ccnn2C1 (stereo not drawn) [Cpd. No. 042, 2-cyano-N-((4-(4-(trifluoromethyl)phenyl)-4,5,6,7-tetrahydropyrazolo[1,5-a]pyrimidin-6-yl)methyl)acetamide]

EC50: < 1 µM
Structure (SMILES): C=CC(=O)NCC1CN(c2ccc(OC(F)(F)F)cc2)c2cc(C)nn2C1 (single isomer, unassigned) [Cpd. No. 030-En2, (R)- or (S)-N-((2-methyl-4-(4-(trifluoromethoxy)phenyl)-4,5,6,7-tetrahydropyrazolo[1,5-a]pyrimidin-6-yl)methyl)acrylamide]

EC50: < 1 µM
Structure (SMILES): C=CC(=O)NCC1CN(c2ccc(C(F)(F)F)cc2)c2cc(C)nn2C1 (single isomer, unassigned) [Cpd. No. 029-En1, (R)- or (S)-N-((2-methyl-4-(4-(trifluoromethyl)phenyl)-4,5,6,7-tetrahydropyrazolo[1,5-a]pyrimidin-6-yl)methyl)acrylamide]

EC50 (Homo sapiens, HEK-293T, 24 h): < 1 µM
Structure (SMILES): C=CC(=O)NCC1CN(c2ccc(OC(F)(F)F)c(F)c2)c2ccnn2C1 (stereo not drawn) [Cpd. No. 018, N-((4-(3-fluoro-4-(trifluoromethoxy)phenyl)-4,5,6,7-tetrahydropyrazolo[1,5-a]pyrimidin-6-yl)methyl)acrylamide]

EC50: > 20 µM
Structure (SMILES): C=CC(=O)NCC1CN(c2ccc(C(F)F)nc2)c2ccnn2C1 (single isomer, unassigned) [Cpd. No. 010-En1, (R)- or (S)-N-((4-(6-(difluoromethyl)pyridin-3-yl)-4,5,6,7-tetrahydropyrazolo[1,5-a]pyrimidin-6-yl)methyl)acrylamide]

EC50 (Homo sapiens, HEK-293T, 24 h): > 20 µM
Structure (SMILES): C#CCNCC1CN(c2ccc(C(F)(F)F)cc2)c2ccnn2C1 (stereo not drawn) [Cpd. No. 044, N-((4-(4-(trifluoromethyl)phenyl)-4,5,6,7-tetrahydropyrazolo[1,5-a]pyrimidin-6-yl)methyl)prop-2-yn-1-amine]

EC50: < 1 µM
Structure (SMILES): C=CC(=O)NCC1CN(c2ccc(C(F)(F)F)cc2)c2cc(C(F)(F)F)nn2C1 (single isomer, unassigned) [Cpd. No. 034-En1, (R)- or (S)-N-((2-(trifluoromethyl)-4-(4-(trifluoromethyl)phenyl)-4,5,6,7-tetrahydropyrazolo[1,5-a]pyrimidin-6-yl)methyl)acrylamide]

EC50: < 1 µM
Structure (SMILES): C=CC(=O)NCC1CN(c2ccc(F)cc2)c2ccnn2C1 (single isomer, unassigned) [Cpd. No. 006-En2, (R)- or (S)-N-((4-(4-fluorophenyl)-4,5,6,7-tetrahydropyrazolo[1,5-a]pyrimidin-6-yl)methyl)acrylamide]

EC50 (Homo sapiens, HEK-293T, 24 h): < 1 µM
Structure (SMILES): C=CC(=O)NCC1CN(c2ccc(F)cc2)c2ccnn2C1 (stereo not drawn) [Cpd. No. 006, N-((4-(4-fluorophenyl)-4,5,6,7-tetrahydropyrazolo[1,5-a]pyrimidin-6-yl)methyl)acrylamide]
